Measured values taken from patent US20060292243A1, “Arsenic compounds for the treatment of the arsenic-sensitive blast-cell related diseases” (priority 2005, published 2006).
Read-outs that look alike come from different tables or passages of the source.

Tests used:
[1] = tested on: FCC1/NH strain of P. falciparum; assay: Malaria inhibition test; format: cell-based
Procedure: FCC1/NH strain (from Hainan, P.R.C.) of P. falciparum was used. The strain of the parasite was cultured by culture media mainly composed of RPMI-1640(GBCO), HEPES (GBCO), NaHCO3, and AB type serum. In a given experiment, Petri dish cultures were diluted with culture medium containing an amount of noninfected type B human erythrocytes to obtain a culture with a final parasitemia of about 1%. The resulting culture was ready for addition to microtitration plates with 96 flat-bottom wells.
The final volume added to each of the 96-well microtitration plates was 200 μl, consisted of 20 μl of complete medium with or without the drug (arsenic trioxide) and 180 μl of the parasitized culture. The microtitration plates were incubated in 5% CO2 for an additional 48 hr, at 37 C. The suspensions were discarded and infection rate of RBC in each well was calculated by microscope examination after Giemsa staining. When drugs interfere, an inhibitory dose of 50% (IC50) and 90% (IC90) can be calculated. A series of experiments is shown below.
The malaria inhibition experiment was performed in 4 lanes for each arsenic trioxide dose, and the initial infectious rate is 1.8%. After 48 hours of incubation, 5000 RBCs in each well were checked by microscope.
Another malaria inhibition experiment was performed in 4 lanes for each arsenic trioxide dose, and the initial infectious rate is 1.5%. After 48 hours of incubation, 5000 RBCs in each well were checked by microscope.
The other malaria inhibition experiment was performed in 12 lanes for each arsenic trioxide dose, and the initial infectious rate is 1.1%. After 48 hours of incubation, 5000 RBCs in each well were checked by microscope.
The other malaria inhibition experiment was performed in 6 lanes for each arsenic trioxide dose, and the initial infectious rate is 1.1%. After 48 hours of incubation, 5000 RBCs in each well were checked by microscope.

[2] = tested on: cultured human fibroblasts; assay: Cell cycle effect on cultured human fibroblasts (MTT, flowcytometry, western blot, promoter luciferase); format: cell-based; details: 1 to 10 μM, 24 hr
Text: Arsenic trioxide has been approved for APL (acute promyelocytic leukemia) therapy, and though much work remains to be done on the application of arsenic trioxide and the mechanism of arsenic toxicity is not fully understood, several recent works pointed out the involvement of oxidative stress in arsenic-induced DNA damage in living cells may cause cell cycle arrest.

[3] = 0.031 uM, exp. 5.2.2, initial infectious rate 1.5%, 4 lanes, 48 hours
[4] = 0.063 uM, exp. 5.2.2, initial infectious rate 1.5%, 4 lanes, 48 hours
[5] = 0.125 uM, exp. 5.2.2, initial infectious rate 1.5%, 4 lanes, 48 hours
[6] = 0.25 uM, exp. 5.2.1, initial infectious rate 1.8%, 4 lanes, 48 hours
[7] = 0.25 uM, exp. 5.2.2, initial infectious rate 1.5%, 4 lanes, 48 hours
[8] = 0.5 uM, exp. 5.2.1, initial infectious rate 1.8%, 4 lanes, 48 hours
[9] = 0.5 uM, exp. 5.2.2, initial infectious rate 1.5%, 4 lanes, 48 hours
[10] = 0.5 uM, exp. 5.2.3, initial infectious rate 1.1%, 12 lanes, 48 hours
[11] = 0.5 uM, exp. 5.2.4, initial infectious rate 1.1%, 6 lanes, 48 hours
[12] = 1.0 uM, exp. 5.2.1, initial infectious rate 1.8%, 4 lanes, 48 hours
[13] = 1.0 uM, exp. 5.2.2, initial infectious rate 1.5%, 4 lanes, 48 hours
[14] = 1.0 uM, exp. 5.2.3, initial infectious rate 1.1%, 12 lanes, 48 hours
[15] = 1.0 uM, exp. 5.2.4, initial infectious rate 1.1%, 6 lanes, 48 hours
[16] = 2.0 uM, exp. 5.2.1, initial infectious rate 1.8%, 4 lanes, 48 hours
[17] = 2.0 uM, exp. 5.2.2, initial infectious rate 1.5%, 4 lanes, 48 hours
[18] = 2.0 uM, exp. 5.2.3, initial infectious rate 1.1%, 12 lanes, 48 hours
[19] = 2.0 uM, exp. 5.2.4, initial infectious rate 1.1%, 6 lanes, 48 hours
[20] = 4.0 uM, exp. 5.2.1, initial infectious rate 1.8%, 4 lanes, 48 hours
[21] = 4.0 uM, exp. 5.2.2, initial infectious rate 1.5%, 4 lanes, 48 hours
[22] = 4.0 uM, exp. 5.2.3, initial infectious rate 1.1%, 12 lanes, 48 hours
[23] = 4.0 uM, exp. 5.2.4, initial infectious rate 1.1%, 6 lanes, 48 hours
[24] = 8.0 uM, exp. 5.2.1, initial infectious rate 1.8%, 4 lanes, 48 hours
[25] = 8.0 uM, exp. 5.2.2, initial infectious rate 1.5%, 4 lanes, 48 hours
[26] = 8.0 uM, exp. 5.2.3, initial infectious rate 1.1%, 12 lanes, 48 hours
[27] = 8.0 uM, exp. 5.2.4, initial infectious rate 1.1%, 6 lanes, 48 hours

Substance: arsenic trioxide
- Probability unit (Y) ([1]; 0.031 uM, exp. 5.2.2): 4.1619
- Infection rate (%) [1, 3]: 79.9%
- Inhibition rate (%) [1, 3]: 20.1%
- Probability unit (Y) ([1]; 0.063 uM, exp. 5.2.2): 4.3659
- Infection rate (%) [1, 4]: 73.7%
- Inhibition rate (%) [1, 4]: 26.3%
- Probability unit (Y) ([1]; 0.125 uM, exp. 5.2.2): 4.5239
- Infection rate (%) [1, 5]: 68.3%
- Inhibition rate (%) [1, 5]: 31.7%
- Probability unit (Y) ([1]; 0.25 uM, exp. 5.2.1): 5.1942
- Infection rate (%) [1, 6]: 42.3%
- Inhibition rate (%) [1, 6]: 57.7%
- Probability unit (Y) ([1]; 0.25 uM, exp. 5.2.2): 4.8743
- Infection rate (%) [1, 7]: 54.9%
- Inhibition rate (%) [1, 7]: 45.1%
- Probability unit (Y) ([1]; 0.5 uM, exp. 5.2.1): 5.6903
- Infection rate (%) [1, 8]: 24.5%
- Inhibition rate (%) [1, 8]: 75.5%
- Probability unit (Y) ([1]; 0.5 uM, exp. 5.2.2): 5.1408
- Infection rate (%) [1, 9]: 44.4%
- Inhibition rate (%) [1, 9]: 55.6%
- Probability unit (Y) ([1]; 0.5 uM, exp. 5.2.3): 5.6008
- Infection rate (%) [1, 10]: 27.4%
- Inhibition rate (%) [1, 10]: 72.6%
- Probability unit (Y) ([1]; 0.5 uM, exp. 5.2.4): 5.6903
- Infection rate (%) [1, 11]: 24.5%
- Inhibition rate (%) [1, 11]: 75.5%
- Probability unit (Y) ([1]; 1.0 uM, exp. 5.2.1): 5.8596
- Infection rate (%) [1, 12]: 19.5%
- Inhibition rate (%) [1, 12]: 80.5%
- Probability unit (Y) ([1]; 1.0 uM, exp. 5.2.2): 5.9192
- Infection rate (%) [1, 13]: 17.9%
- Inhibition rate (%) [1, 13]: 82.1%
- Probability unit (Y) ([1]; 1.0 uM, exp. 5.2.3): 5.1311
- Infection rate (%) [1, 14]: 12.9%
- Inhibition rate (%) [1, 14]: 87.1%
- Probability unit (Y) ([1]; 1.0 uM, exp. 5.2.4): 6.0027
- Infection rate (%) [1, 15]: 15.7%
- Inhibition rate (%) [1, 15]: 84.3%
- Probability unit (Y) ([1]; 2.0 uM, exp. 5.2.1): 6.0939
- Infection rate (%) [1, 16]: 13.7%
- Inhibition rate (%) [1, 16]: 86.3%
- Probability unit (Y) ([1]; 2.0 uM, exp. 5.2.2): 6.1311
- Infection rate (%) [1, 17]: 12.9%
- Inhibition rate (%) [1, 17]: 87.1%
- Probability unit (Y) ([1]; 2.0 uM, exp. 5.2.3): 6.3722
- Infection rate (%) [1, 18]: 8.5%
- Inhibition rate (%) [1, 18]: 91.5%
- Probability unit (Y) ([1]; 2.0 uM, exp. 5.2.4): 6.3408
- Infection rate (%) [1, 19]: 9.0%
- Inhibition rate (%) [1, 19]: 91.0%
- Probability unit (Y) ([1]; 4.0 uM, exp. 5.2.1): 6.3225
- Infection rate (%) [1, 20]: 9.3%
- Inhibition rate (%) [1, 20]: 90.7%
- Probability unit (Y) ([1]; 4.0 uM, exp. 5.2.2): 6.2160
- Infection rate (%) [1, 21]: 11.2%
- Inhibition rate (%) [1, 21]: 88.8%
- Probability unit (Y) ([1]; 4.0 uM, exp. 5.2.3): 6.7866
- Infection rate (%) [1, 22]: 3.6%
- Inhibition rate (%) [1, 22]: 96.3%
- Probability unit (Y) ([1]; 4.0 uM, exp. 5.2.4): 6.7507
- Infection rate (%) [1, 23]: 4.0%
- Inhibition rate (%) [1, 23]: 96.0%
- Probability unit (Y) ([1]; 8.0 uM, exp. 5.2.1): 6.4909
- Infection rate (%) [1, 24]: 6.8%
- Inhibition rate (%) [1, 24]: 93.2%
- Probability unit (Y) ([1]; 8.0 uM, exp. 5.2.2): 6.6352
- Infection rate (%) [1, 25]: 5.1%
- Inhibition rate (%) [1, 25]: 94.9%
- Probability unit (Y) ([1]; 8.0 uM, exp. 5.2.3): 7.0537
- Infection rate (%) [1, 26]: 2.0%
- Inhibition rate (%) [1, 26]: 98.0%
- Probability unit (Y) ([1]; 8.0 uM, exp. 5.2.4): 7.0749
- Infection rate (%) [1, 27]: 1.9%
- Inhibition rate (%) [1, 27]: 98.1%
- IC50 ([1]; exp. 5.2.1, initial infectious rate 1.8%, 48 hours, read-out: IC50): 100 nM
- IC90 ([1]; exp. 5.2.1, initial infectious rate 1.8%, 48 hours, read-out: IC90): 3680 nM
- IC50 ([1]; exp. 5.2.1, 95% confidence limit 11.43˜34.2 ng/ml): 0.01978 µg/mL
- IC90 ([1]; exp. 5.2.1, 95% confidence limit 420.84˜1259.53 ng/ml): 0.72805 µg/mL
- IC50 ([1]; exp. 5.2.2, initial infectious rate 1.5%, 48 hours, read-out: IC50): 250 nM
- IC90 ([1]; exp. 5.2.2, initial infectious rate 1.5%, 48 hours, read-out: IC90): 3730 nM
- IC50 ([1]; exp. 5.2.2, 95% confidence limit 28.00˜86.73 ng/ml): 0.04928 µg/mL
- IC90 ([1]; exp. 5.2.2, 95% confidence limit 419.28˜1298.77 ng/ml): 0.73794 µg/mL
- IC50 ([1]; exp. 5.2.3, initial infectious rate 1.1%, 12 lanes, 48 hours, read-out: IC50): 130 nM
- IC90 ([1]; exp. 5.2.3, initial infectious rate 1.1%, 12 lanes, 48 hours, read-out: IC90): 960 nM
- IC50 ([1]; exp. 5.2.3, 95% confidence limit 18.91˜34.9 ng/ml): 0.02572 µg/mL
- IC90 ([1]; exp. 5.2.3, 95% confidence limit 139.65˜258.3 ng/ml): 0.18993 µg/mL
- IC90 ([1]; exp. 5.2.4, initial infectious rate 1.1%, 6 lanes, 48 hours, read-out: IC90): 2090 nM
- IC50 ([1]; exp. 5.2.4, 95% confidence limit 40.32˜99.4 ng/ml): 0.06331 µg/mL
- IC90 ([1]; exp. 5.2.4, 95% confidence limit printed 263.06˜258.30 ng/ml): 0.41348 µg/mL
- effect on cell cycle of fibroblasts [2]: cell cycle arrest especially in G2/M
